Experimental findings from PMC3961306, “Comparison of the Cancer Gene Targeting and Biochemical Selectivities of All Targeted Kinase Inhibitors Approved for Clinical Use” (PLoS ONE, 2014) are described below.

What all share (assay): Kinase profiling in a biochemical assay panel (mobility shift assays and ELISA), %-inhibition at 1 μM; selectivity entropy
For orientation: An ELISA detects its analyte on a solid surface through an enzyme-linked reagent.

Assay [1] concerns the target panel of more than 300 wild-type and mutant kinases (313 kinase panel) (Homo sapiens, UniProt Q9UBS0). The following applies: kinase p70S6Kβ; 1 μM.
In assay [2] the target is panel of more than 300 wild-type and mutant kinases (313 kinase panel) (Homo sapiens, UniProt Q9Y6R4). Particulars: kinase MAP3K4; compound at 1 μM.
Assay [3] addresses T1, panel of more than 300 wild-type and mutant kinases (313 kinase panel) (Homo sapiens, UniProt Q9BZL6).
T1 sequence (Q9BZL6 1-878): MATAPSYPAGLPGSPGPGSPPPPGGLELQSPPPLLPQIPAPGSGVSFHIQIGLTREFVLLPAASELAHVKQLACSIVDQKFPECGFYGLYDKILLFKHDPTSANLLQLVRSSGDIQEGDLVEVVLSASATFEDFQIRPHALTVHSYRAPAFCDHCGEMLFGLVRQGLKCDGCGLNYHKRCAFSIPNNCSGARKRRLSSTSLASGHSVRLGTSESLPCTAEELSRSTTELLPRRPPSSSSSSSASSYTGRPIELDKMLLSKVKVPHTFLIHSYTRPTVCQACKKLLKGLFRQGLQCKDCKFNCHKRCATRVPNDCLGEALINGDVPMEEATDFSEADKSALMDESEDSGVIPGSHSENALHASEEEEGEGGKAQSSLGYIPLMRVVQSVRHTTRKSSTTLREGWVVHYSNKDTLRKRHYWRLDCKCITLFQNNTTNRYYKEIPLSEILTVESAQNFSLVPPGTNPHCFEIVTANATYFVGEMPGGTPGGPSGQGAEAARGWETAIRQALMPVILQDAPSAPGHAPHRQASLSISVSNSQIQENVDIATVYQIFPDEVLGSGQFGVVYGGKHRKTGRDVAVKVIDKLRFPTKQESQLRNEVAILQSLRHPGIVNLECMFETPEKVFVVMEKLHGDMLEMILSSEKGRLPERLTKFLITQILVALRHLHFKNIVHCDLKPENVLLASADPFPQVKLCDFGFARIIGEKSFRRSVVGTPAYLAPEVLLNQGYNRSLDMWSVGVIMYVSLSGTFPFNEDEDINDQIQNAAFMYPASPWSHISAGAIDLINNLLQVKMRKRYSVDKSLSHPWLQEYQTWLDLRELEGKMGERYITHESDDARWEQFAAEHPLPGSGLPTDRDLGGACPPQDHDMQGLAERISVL
The following applies: kinase PKD2; 1 μM.

The target in assay [4] is panel of more than 300 wild-type and mutant kinases (313 kinase panel) (Homo sapiens, UniProt Q05655).
In assay [5] the target is T2, panel of more than 300 wild-type and mutant kinases (313 kinase panel) (Homo sapiens, UniProt Q15139).
T2 sequence (Q15139 1-912): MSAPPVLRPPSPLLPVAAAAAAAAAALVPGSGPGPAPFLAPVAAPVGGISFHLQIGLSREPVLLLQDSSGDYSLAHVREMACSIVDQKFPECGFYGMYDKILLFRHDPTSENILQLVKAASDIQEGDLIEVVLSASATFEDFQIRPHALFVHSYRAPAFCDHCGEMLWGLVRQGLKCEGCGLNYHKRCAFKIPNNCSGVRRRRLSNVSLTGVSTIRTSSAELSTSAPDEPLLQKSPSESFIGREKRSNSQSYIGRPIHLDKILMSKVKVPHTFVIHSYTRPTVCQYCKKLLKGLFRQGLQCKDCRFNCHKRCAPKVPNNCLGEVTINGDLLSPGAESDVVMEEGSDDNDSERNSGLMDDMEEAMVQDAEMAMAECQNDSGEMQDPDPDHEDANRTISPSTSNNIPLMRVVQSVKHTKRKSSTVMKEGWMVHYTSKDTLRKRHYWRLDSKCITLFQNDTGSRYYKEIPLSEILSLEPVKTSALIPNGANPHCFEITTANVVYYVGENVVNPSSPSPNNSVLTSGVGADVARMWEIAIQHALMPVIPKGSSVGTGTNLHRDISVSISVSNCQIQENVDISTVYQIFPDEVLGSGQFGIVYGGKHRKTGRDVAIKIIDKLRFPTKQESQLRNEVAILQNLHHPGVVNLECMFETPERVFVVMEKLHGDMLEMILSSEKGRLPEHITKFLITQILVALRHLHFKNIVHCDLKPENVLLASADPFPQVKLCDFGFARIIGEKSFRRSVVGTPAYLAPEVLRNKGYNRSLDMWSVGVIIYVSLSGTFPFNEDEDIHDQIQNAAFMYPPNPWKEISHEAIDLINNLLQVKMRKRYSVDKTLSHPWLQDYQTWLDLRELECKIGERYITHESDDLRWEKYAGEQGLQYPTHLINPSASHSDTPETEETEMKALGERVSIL

For assay [6], the target named is panel of more than 300 wild-type and mutant kinases (313 kinase panel) (Homo sapiens, UniProt P10721, T670I).
The target in assay [7] is panel of more than 300 wild-type and mutant kinases (313 kinase panel) (Homo sapiens, UniProt Q9BUB5).
Assay [8] addresses panel of more than 300 wild-type and mutant kinases (313 kinase panel) (Homo sapiens, UniProt P05129). Particulars: kinase PKCγ; 1 μM.
The mark [9] stands for this setting: kinase KIT(T670I), compound at 1 μM.

panel of more than 300 wild-type and mutant kinases (313 kinase panel) (Homo sapiens, UniProt Q9BUB5), sequence (Q9BUB5 whole entry, change not shown): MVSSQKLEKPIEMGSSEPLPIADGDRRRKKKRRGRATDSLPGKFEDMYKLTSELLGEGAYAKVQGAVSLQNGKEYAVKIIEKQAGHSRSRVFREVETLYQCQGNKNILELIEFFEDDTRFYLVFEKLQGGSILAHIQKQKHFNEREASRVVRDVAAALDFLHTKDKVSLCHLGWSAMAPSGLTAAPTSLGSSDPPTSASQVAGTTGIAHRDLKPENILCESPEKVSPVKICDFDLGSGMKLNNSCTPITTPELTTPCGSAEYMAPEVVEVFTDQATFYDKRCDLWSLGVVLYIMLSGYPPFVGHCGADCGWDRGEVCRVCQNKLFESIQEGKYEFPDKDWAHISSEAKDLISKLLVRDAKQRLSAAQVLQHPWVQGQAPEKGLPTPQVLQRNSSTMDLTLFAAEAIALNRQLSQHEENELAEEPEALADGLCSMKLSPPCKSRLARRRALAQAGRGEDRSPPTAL
panel of more than 300 wild-type and mutant kinases (313 kinase panel) (Homo sapiens, UniProt Q9Y6R4), sequence (Q9Y6R4 whole entry, change not shown): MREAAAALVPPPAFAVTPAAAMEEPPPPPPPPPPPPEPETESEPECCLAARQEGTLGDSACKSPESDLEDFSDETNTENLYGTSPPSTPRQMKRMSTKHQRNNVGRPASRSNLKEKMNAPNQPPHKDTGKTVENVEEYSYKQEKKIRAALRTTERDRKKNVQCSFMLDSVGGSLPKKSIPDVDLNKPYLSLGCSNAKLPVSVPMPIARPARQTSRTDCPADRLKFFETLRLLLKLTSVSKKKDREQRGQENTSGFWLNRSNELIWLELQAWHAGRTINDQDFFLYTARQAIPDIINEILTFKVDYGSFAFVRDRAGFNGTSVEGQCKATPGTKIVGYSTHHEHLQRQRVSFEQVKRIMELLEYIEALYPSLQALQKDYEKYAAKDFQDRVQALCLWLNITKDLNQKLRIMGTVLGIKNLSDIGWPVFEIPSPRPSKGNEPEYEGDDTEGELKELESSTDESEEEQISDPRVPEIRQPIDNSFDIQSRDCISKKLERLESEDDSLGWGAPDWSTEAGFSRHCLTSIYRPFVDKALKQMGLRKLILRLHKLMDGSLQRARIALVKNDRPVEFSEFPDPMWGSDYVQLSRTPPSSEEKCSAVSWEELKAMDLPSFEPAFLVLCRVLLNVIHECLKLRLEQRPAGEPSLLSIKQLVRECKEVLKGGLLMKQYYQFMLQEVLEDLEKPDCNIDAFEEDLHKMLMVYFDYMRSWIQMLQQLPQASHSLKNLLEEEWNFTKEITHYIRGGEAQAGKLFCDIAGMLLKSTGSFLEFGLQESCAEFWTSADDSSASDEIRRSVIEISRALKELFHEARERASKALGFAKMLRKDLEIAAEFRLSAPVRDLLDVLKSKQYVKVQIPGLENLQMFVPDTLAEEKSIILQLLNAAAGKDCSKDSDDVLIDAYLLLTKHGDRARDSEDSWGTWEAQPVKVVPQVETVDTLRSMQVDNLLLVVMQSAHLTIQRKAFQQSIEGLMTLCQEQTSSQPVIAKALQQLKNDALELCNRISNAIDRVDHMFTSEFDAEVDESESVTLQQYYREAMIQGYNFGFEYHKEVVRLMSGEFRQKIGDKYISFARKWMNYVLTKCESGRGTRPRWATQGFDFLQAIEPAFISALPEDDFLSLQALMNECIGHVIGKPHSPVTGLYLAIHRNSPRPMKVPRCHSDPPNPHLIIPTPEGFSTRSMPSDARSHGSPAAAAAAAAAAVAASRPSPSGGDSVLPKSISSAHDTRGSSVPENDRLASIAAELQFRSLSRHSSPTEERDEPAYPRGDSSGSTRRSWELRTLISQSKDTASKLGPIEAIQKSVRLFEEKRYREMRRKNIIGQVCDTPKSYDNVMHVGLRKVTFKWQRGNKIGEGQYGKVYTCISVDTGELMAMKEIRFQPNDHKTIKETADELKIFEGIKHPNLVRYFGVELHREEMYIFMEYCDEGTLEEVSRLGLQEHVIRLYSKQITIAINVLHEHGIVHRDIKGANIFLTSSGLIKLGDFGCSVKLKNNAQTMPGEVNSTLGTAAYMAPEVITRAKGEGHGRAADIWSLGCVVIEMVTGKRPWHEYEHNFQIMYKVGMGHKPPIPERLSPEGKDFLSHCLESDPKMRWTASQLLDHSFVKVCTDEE
panel of more than 300 wild-type and mutant kinases (313 kinase panel) (Homo sapiens, UniProt P10721, T670I), sequence (P10721 26-976 T670I): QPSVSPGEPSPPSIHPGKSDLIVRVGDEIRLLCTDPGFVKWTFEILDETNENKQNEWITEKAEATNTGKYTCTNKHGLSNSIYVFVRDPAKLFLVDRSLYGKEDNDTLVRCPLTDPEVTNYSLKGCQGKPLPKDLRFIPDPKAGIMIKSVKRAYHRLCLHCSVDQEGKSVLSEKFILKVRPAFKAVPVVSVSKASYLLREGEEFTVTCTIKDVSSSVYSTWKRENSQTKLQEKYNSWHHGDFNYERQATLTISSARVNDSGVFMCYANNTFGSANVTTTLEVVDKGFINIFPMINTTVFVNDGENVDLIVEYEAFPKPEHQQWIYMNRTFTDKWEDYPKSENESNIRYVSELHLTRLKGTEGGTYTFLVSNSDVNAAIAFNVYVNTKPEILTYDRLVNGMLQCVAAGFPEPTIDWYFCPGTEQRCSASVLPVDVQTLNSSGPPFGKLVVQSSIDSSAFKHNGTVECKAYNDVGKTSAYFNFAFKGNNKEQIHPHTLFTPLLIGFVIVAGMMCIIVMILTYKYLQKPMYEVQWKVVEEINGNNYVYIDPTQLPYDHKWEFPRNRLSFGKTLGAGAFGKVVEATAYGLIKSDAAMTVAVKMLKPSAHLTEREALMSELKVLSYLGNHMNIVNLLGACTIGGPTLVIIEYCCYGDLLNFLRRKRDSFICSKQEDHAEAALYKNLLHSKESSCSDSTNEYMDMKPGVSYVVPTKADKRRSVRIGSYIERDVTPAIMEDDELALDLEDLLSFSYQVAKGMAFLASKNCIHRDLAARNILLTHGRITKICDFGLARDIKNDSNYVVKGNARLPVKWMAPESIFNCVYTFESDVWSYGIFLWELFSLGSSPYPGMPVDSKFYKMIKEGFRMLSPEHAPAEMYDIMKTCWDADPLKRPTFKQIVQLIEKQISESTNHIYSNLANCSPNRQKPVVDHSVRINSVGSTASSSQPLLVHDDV

Regarding `Cc1cn(-c2cc(NC(=O)c3ccc(C)c(Nc4nccc(-c5cccnc5)n4)c3)cc(C(F)(F)F)c2)cn1` [nilotinib], in assay [1], the “%-inhibition of p70S6Kβ” value is reported as -3.7%. Besides, in assay [2], the “%-inhibition of MAP3K4” value was -18%. Moreover, the “%-inhibition of PKD2” value in assay [3] is reported as -3%. Moreover, the “%-inhibition of PKCδ” value in assay [4] (1 µM) was -14%. In addition, the “%-inhibition of PKD1” value in assay [5] (1 µM) was -6%. Besides, the “%-inhibition of KIT(T670I)” value in assay [6] (1 µM) worked out at 18%. The “%-inhibition of MNK1” value in assay [7] (1 µM) was -1.26%. The “%-inhibition of PKCγ” value in assay [8] is reported as -1.31%.

Regarding `CNC(=O)c1cc(Oc2ccc(NC(=O)Nc3ccc(Cl)c(C(F)(F)F)c3)c(F)c2)ccn1` [regorafenib], the “%-inhibition of p70S6Kβ” value in assay [1] is recorded as 1.41%. For the same compound, the “%-inhibition of MAP3K4” value in assay [2] is -9%. Further, the “%-inhibition of PKD2” value in assay [3] is -18%. For the same compound, in assay [4] (kinase PKCδ, 1 μM), the “%-inhibition of PKCδ” value was determined as 2.2%. For the same compound, the “%-inhibition of PKD1” value in assay [5] (kinase PKD1, 1 μM) came to 37%. Also, in assay [6] (setting [9]), the “%-inhibition of KIT(T670I)” value stood at 101%. The “%-inhibition of MNK1” value in assay [7] (kinase MNK1, 1 μM) is 7%. The “%-inhibition of PKCγ” value in assay [8] is listed as -8%.

Take `N#CC[C@H](C1CCCC1)n1cc(-c2ncnc3[nH]ccc23)cn1` [ruxolitinib]: in assay [1], the “%-inhibition of p70S6Kβ” value is 11%. Further, in assay [2], the “%-inhibition of MAP3K4” value was -4%. Also, in assay [3], the “%-inhibition of PKD2” value is -6%. For the same compound, the “%-inhibition of PKCδ” value in assay [4] (kinase PKCδ, 1 μM) stood at 2%. The “%-inhibition of PKD1” value in assay [5] (kinase PKD1, 1 μM) was 2.11%. The “%-inhibition of KIT(T670I)” value in assay [6] (setting [9]) is -0.512%. Moreover, in assay [7] (kinase MNK1, 1 μM), the “%-inhibition of MNK1” value was determined as 8.57%. In assay [8], the “%-inhibition of PKCγ” value is recorded as 6%.

In the case of `CO[C@H]1C[C@@H]2CC[C@@H](C)[C@@](O)(O2)C(=O)C(=O)N2CCCC[C@H]2C(=O)O[C@H]([C@H](C)C[C@@H]2CC[C@@H](OC(=O)C(C)(CO)CO)[C@H](OC)C2)CC(=O)[C@H](C)/C=C(\C)[C@@H](O)[C@@H](OC)C(=O)[C@H](C)C[C@H](C)/C=C/C=C/C=C/1C` [temsirolimus], the “%-inhibition of p70S6Kβ” value in assay [1] is given as -7%. Further, the “%-inhibition of MAP3K4” value in assay [2] is listed as 11%. Also, in assay [3], the “%-inhibition of PKD2” value is given as -16%. In assay [4] (kinase PKCδ, 1 μM), the “%-inhibition of PKCδ” value is listed as -4%. In addition, in assay [5] (kinase PKD1, 1 μM), the “%-inhibition of PKD1” value is -17%. In assay [6] (setting [9]), the “%-inhibition of KIT(T670I)” value was -4.27%. Also, in assay [7] (kinase MNK1, 1 μM), the “%-inhibition of MNK1” value is -19%. Also, the “%-inhibition of PKCγ” value in assay [8] is -11%.

In the case of `CC(=O)Nc1cccc(-n2c(=O)n(C3CC3)c(=O)c3c(Nc4ccc(I)cc4F)n(C)c(=O)c(C)c32)c1` [trametinib], the “%-inhibition of p70S6Kβ” value in assay [1] was -1%. For the same compound, in assay [2], the “%-inhibition of MAP3K4” value is listed as 6%. Further, the “%-inhibition of PKD2” value in assay [3] was -3.28%. Moreover, in assay [4] (kinase PKCδ, 1 μM), the “%-inhibition of PKCδ” value is -4.75%. Moreover, in assay [5] (kinase PKD1, 1 μM), the “%-inhibition of PKD1” value worked out at 9%. Further, the “%-inhibition of KIT(T670I)” value in assay [6] (setting [9]) is -3%. Besides, the “%-inhibition of MNK1” value in assay [7] (kinase MNK1, 1 μM) is reported as -3%. Further, in assay [8], the “%-inhibition of PKCγ” value amounted to 0.381%.

With `CCCS(=O)(=O)Nc1ccc(F)c(C(=O)c2c[nH]c3ncc(-c4ccc(Cl)cc4)cc23)c1F` [vemurafenib], the “%-inhibition of p70S6Kβ” value in assay [1] was found to be 0.235%. The “%-inhibition of MAP3K4” value in assay [2] was determined as 14%. The “%-inhibition of PKD2” value in assay [3] was -13%. Further, the “%-inhibition of PKCδ” value in assay [4] (kinase PKCδ, 1 μM) was -5%. Also, the “%-inhibition of PKD1” value in assay [5] (kinase PKD1, 1 μM) is on record as 43%. Moreover, the “%-inhibition of KIT(T670I)” value in assay [6] (setting [9]) was 5.29%. For the same compound, the “%-inhibition of MNK1” value in assay [7] (kinase MNK1, 1 μM) is listed as 23%. Further, the “%-inhibition of PKCγ” value in assay [8] was -4.39%.
